Laboratory results taken from US20250230193A1, “CYCLIC COMPOUND HAVING SELECTIVE KRAS INHIBITORY EFFECT ON HRAS AND NRAS” (CHUGAI SEIYAKU KABUSHIKI KAISHA, priority 2022, published 2025).
Where a SMILES comes first, the peptide text is derived from it. Bridges are numbered along the chain shown (N, C = ends). [ ]: non-standard residue; d: D form. The star is where a group is joined. hPhe(3-Cl-4-CF3) = N[C@@H](CCc1ccc(C(F)(F)F)c(Cl)c1)C(=O)O; NPrPhe(4-CF3) = CCCN[C@@H](Cc1ccc(C(F)(F)F)cc1)C(=O)O; NEtPhe(4-Me) = CCN[C@@H](Cc1ccc(C)cc1)C(=O)O; NMeGly(cPent) = CN[C@H](C(=O)O)C1CCCC1; Pro(4,4-F2) = O=C(O)[C@@H]1CC(F)(F)CN1; NMeD = CN[C@@H](CC(=O)O)C(=O)O; NMeL = CN[C@@H](CC(C)C)C(=O)O; Morpholide = C1CN(*)CCO1; Piperidide = C1CCN(*)CC1; Ac5c = NC1(C(=O)O)CCCC1; Ac4c = NC1(C(=O)O)CCC1; NEtG = CCNCC(=O)O; Sar = CNCC(=O)O

How the values were obtained:
[1] = biological target: GDP-bound NRAS wild-type protein (Homo sapiens, UniProt P01111); assay: Binding to NRAS by surface plasmon resonance (SPR), Single Cycle Kinetics; conditions: SPR; for NRAS/KRAS (ratio of KD value for NRAS to KD value for KRAS) / NRAS/KRAS (ratio of KD value with respect to NRAS to KD value with respect to KRAS): GDP-bound NRAS wild-type vs GDP-bound KRAS wild-type
[2] = biological target: GDP-bound HRAS wild-type protein (Homo sapiens, UniProt P01112); assay: Binding to HRAS by surface plasmon resonance (SPR), Single Cycle Kinetics; conditions: SPR; for HRAS/KRAS (ratio of KD value for HRAS to KD value for KRAS) / HRAS/KRAS (ratio of KD value with respect to HRAS to KD value with respect to KRAS): GDP-bound HRAS wild-type vs GDP-bound KRAS wild-type
Chain of GDP-bound HRAS wild-type protein (P01112 whole entry): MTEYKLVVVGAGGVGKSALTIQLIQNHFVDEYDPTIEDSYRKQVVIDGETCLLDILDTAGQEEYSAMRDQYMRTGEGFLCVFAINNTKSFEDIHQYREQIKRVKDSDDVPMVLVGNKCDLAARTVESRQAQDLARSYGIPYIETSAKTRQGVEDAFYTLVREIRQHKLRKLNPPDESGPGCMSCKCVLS

Chain of GDP-bound NRAS wild-type protein (P01111 whole entry): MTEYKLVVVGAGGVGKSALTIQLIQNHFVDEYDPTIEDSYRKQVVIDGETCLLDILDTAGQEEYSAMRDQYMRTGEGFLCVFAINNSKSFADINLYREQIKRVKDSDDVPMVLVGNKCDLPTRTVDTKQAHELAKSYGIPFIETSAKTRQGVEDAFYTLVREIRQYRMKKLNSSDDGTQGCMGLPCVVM

`CC[C@H](C)[C@@H]1NC(=O)[C@H](C)N(C)C(=O)C[C@@H](C(=O)N(C)C)N(C)C(=O)[C@H](C2CCCC2)N(C)C(=O)C2(CCC2)NC(=O)[C@@H]2CC(F)(F)CN2C(=O)[C@H](CCc2cc(F)c(C(F)(F)F)c(F)c2)NC(=O)CN(C)C(=O)[C@H](Cc2ccc(C(F)(F)F)cc2)N2CCCCC[C@@H](C2=O)N(C)C(=O)CN(C)C1=O` [PP0473] was tested, and the “NRAS/KRAS (ratio of KD value with respect to GDP-bound NRAS wild-type protein to KD value with respect to KRAS)” value ([1]; KD ratio NRAS/KRAS) was “C (A compound having a KD ratio of 0.1 or more and less than 3 is denoted as C)” and the “HRAS/KRAS (ratio of KD value with respect to GDP-bound HRAS wild-type protein to KD value with respect to KRAS)” value ([2]; KD ratio HRAS/KRAS) was “C (A compound having a KD ratio of 0.1 or more and less than 3 is denoted as C)”.

`CC[C@H](C)[C@@H]1NC(=O)[C@H](CC(C)C)N(C)C(=O)C[C@@H](C(=O)N2CCOCC2)N(C)C(=O)[C@H](C2CCCC2)N(C)C(=O)C2(CCCC2)NC(=O)[C@@H]2CCCN2C(=O)[C@H](CCc2ccc(C(F)(F)F)c(Cl)c2)NC(=O)CN(CC)C(=O)[C@H](Cc2ccc(C)cc2)N(CC)C(=O)CN(CC)C(=O)CN(C)C1=O` [PP0030] ([NMeL]I[Sar][NEtG][NEtPhe(4-Me)][NEtG][hPhe(3-Cl-4-CF3)]P[Ac5c][NMeGly(cPent)][NMeD]-Morpholide; lactam N-11) was tested, and the “NRAS/KRAS (ratio of KD for GDP-bound NRAS wild-type to KD for KRAS)” value ([1]; KD ratio NRAS/KRAS) was “C (A compound having a KD ratio of 0.1 or more and less than 3 is denoted as C)” and the “HRAS/KRAS (ratio of KD for GDP-bound HRAS wild-type to KD for KRAS)” value ([2]; KD ratio HRAS/KRAS) was “C (A compound having a KD ratio of 0.1 or more and less than 3 is denoted as C)”.

With `CCO[C@@H]1C[C@H]2C(=O)NC3(CC(C)(C)C3)C(=O)N(C)[C@@H](C(CC)CC)C(=O)N(C)[C@H](C3CCC3)CC(=O)N(C)[C@@H](CC3CC3)C(=O)N[C@@H]([C@@H](C)CC)C(=O)N(C)CC(=O)N(C)[C@H]3C/C=C\CCN(C3=O)[C@@H](Cc3ccc(C(F)(F)F)cc3)C(=O)N(C)CC(=O)N[C@@H](CCc3cc(F)c(C(F)(F)F)c(F)c3)C(=O)N2C1` [PP1634] the “NRAS/KRAS (ratio of KD value for NRAS to KD value for KRAS)” value ([1]; KD ratio) was “A (a compound having 10 or more and less than 20 is denoted as A)” and the “HRAS/KRAS (ratio of KD value for HRAS to KD value for KRAS)” value ([2]; KD ratio) was “A (a compound having 10 or more and less than 20 is denoted as A)”.

With `CCCOC[C@H]1C(=O)N[C@@H]([C@@H](C)CC)C(=O)N(C2CC2)CC(=O)N(C)[C@H]2C/C=C\CCN(C2=O)[C@@H](Cc2ccc(C)cc2)C(=O)N(C)CC(=O)N[C@@H](CCc2ccc(C(F)(F)F)c(OC)c2)C(=O)N2C[C@@H](C)C[C@H]2C(=O)N(C)C2(CCC2)C(=O)N(C)[C@@H](C2CCCC2)C(=O)N(C)[C@H](C(=O)N(C)C)CC(=O)N1C` [PP2367] the “NRAS/KRAS (ratio of KD value with respect to NRAS to KD value with respect to KRAS)” value [1] was “A (a compound having 10 or more and less than 20 is denoted as A)” and the “HRAS/KRAS (ratio of KD value with respect to HRAS to KD value with respect to KRAS)” value [2] was “B (a compound having 3 or more and less than 10 is denoted as B)”.

With `CCO[C@@H]1C[C@H]2C(=O)NC3(CCC3)C(=O)N(C)[C@@H](C3CCCC3)C(=O)N(C)[C@H](C(=O)N(C)C)CC(=O)N(C)[C@@H](CC)C(=O)N[C@@H]([C@@H](C)CC)C(=O)N(C)CC(=O)N(C)[C@H]3C[C@@H](C)CCN(C3=O)[C@@H](Cc3ccc(C(F)(F)F)cc3)C(=O)N(C)CC(=O)N[C@@H](CCc3cc(F)c(C(F)(F)F)c(F)c3)C(=O)N2C1` [PP1020] the “NRAS/KRAS (ratio of KD value with respect to NRAS to KD value with respect to KRAS)” value ([1]; KD ratio) was “C (A compound having a KD ratio of 0.1 or more and less than 3 is denoted as C)” and the “HRAS/KRAS (ratio of KD value with respect to HRAS to KD value with respect to KRAS)” value ([2]; KD ratio) was “B (a compound having 3 or more and less than 10 is denoted as B)”.

In the case of `CCCN1C(=O)CN(C)C(=O)CN(C)C(=O)[C@H]([C@@H](C)CC)NC(=O)[C@H](CC(C)C)N(C)C(=O)C[C@@H](C(=O)N2CCOCC2)NC(=O)[C@H](C2CCCC2)N(C)C(=O)C2(CCCC2)NC(=O)[C@@H]2CC(F)(F)CN2C(=O)[C@H](CCc2ccc(C(F)(F)F)c(Cl)c2)NC(=O)CN(C)C(=O)[C@@H]1Cc1ccc(C(F)(F)F)cc1` [PP0321] ([NMeL]I[Sar][Sar][NPrPhe(4-CF3)][Sar][hPhe(3-Cl-4-CF3)][Pro(4,4-F2)][Ac5c][NMeGly(cPent)]D-Morpholide; lactam N-11), the “NRAS/KRAS (ratio of KD for GDP-bound NRAS wild-type to KD for KRAS)” value ([1]; KD ratio NRAS/KRAS) is reported as “B (a compound having 3 or more and less than 10 is denoted as B)” and the “HRAS/KRAS (ratio of KD for GDP-bound HRAS wild-type to KD for KRAS)” value ([2]; KD ratio HRAS/KRAS) is reported as “B (a compound having 3 or more and less than 10 is denoted as B)”.

`CCCN1C(=O)CN(C)C(=O)CN(C)C(=O)[C@H]([C@@H](C)CC)NC(=O)[C@H](CC(C)C)N(C)C(=O)C[C@@H](C(=O)N2CCCCC2)N(C)C(=O)[C@H](C2CCCC2)N(C)C(=O)C2(CCC2)NC(=O)[C@@H]2CCCN2C(=O)[C@H](CCc2ccc(C(F)(F)F)c(Cl)c2)NC(=O)CN(C)C(=O)[C@@H]1Cc1ccc(C(F)(F)F)cc1` [PP1930] ([NMeL]I[Sar][Sar][NPrPhe(4-CF3)][Sar][hPhe(3-Cl-4-CF3)]P[Ac4c][NMeGly(cPent)][NMeD]-Piperidide; lactam N-11) was tested, and the “NRAS/KRAS (ratio of KD value for NRAS to KD value for KRAS)” value ([1]; KD ratio) was “B (a compound having 3 or more and less than 10 is denoted as B)” and the “HRAS/KRAS (ratio of KD value for HRAS to KD value for KRAS)” value ([2]; KD ratio) was “C (A compound having a KD ratio of 0.1 or more and less than 3 is denoted as C)”.
